Assay results as given in ChEMBL document CHEMBL5543174, “A Nonbactericidal Anionic Antimicrobial Peptide Provides Prophylactic and Therapeutic Efficacies against Bacterial Infections in Mice by Immunomodulatory-Antithrombotic Duality” (J Med Chem, 2024).
Active and inactive are the calls of the source. The calls are words filed in the database; no cut-off is given here.

Legend:
[1] = test system: Escherichia coli; assay: Antibacterial activity against Carbapenem-resistant Escherichia coli infected in C57BL/6 mouse assessed as reduction in IL-1beta level in serum at 10 mg/kg,ip administrated 5 hrs after bacterial infection measured after 24 hrs by ELISA; type: functional, organism-based; details: time 19.0 hrs
[2] = test system: Peritoneal macrophage; assay: Induction of chemotaxis in mouse Peritoneal macrophage assessed as upregulation of TNF-alpha expression at 25 to 100 ug/ml incubated for 6 hrs by ELISA; type: functional, cell-based; details: dose 25-100 µg/ml
[3] = test system: Mus musculus; assay: Induction of chemotaxis in C57BL/6 mouse assessed as upregulation of MCP-1 expression in peritoneal lavage at 10 mg/kg,ip administration measured at 5 to 24 hrs by ELISA; type: functional, organism-based; details: time 5-24 hrs
[4] = test system: Mus musculus; assay: Anticoagulation activity in mouse infected with Methicillin-resistant Staphylococcus aureus assessed as increase in plasma APC expression at 10 mg/kg,ip administrated 5 hrs after bacterial infection measured after 24 hrs by ELISA; type: functional, organism-based; details: time 19.0 hrs
[5] = test system: Mus musculus; assay: Immunomodulatory activity in cyclophosphamide immunosuppressed C57BL/6 mouse with neutrophil depletion model assessed as increase in number of neutrophil in peritoneal lavage at 10 mg/kg,ip administration measured after 12 hrs by flow cytometry; type: functional, organism-based
[6] = test system: Nakaseomyces glabratus; assay: Antimicrobial activity against Candida glabrata ATCC 66032 assessed as inhibition of microbial growth at <= 200 ug/ml incubated for 18 hrs by micro-broth dilution method; type: functional, organism-based; details: dose <= 200.0 µg/ml
[7] = test system: Mus musculus; assay: Anticoagulation activity in mouse infected with Carbapenem-resistant Escherichia coli assessed as increase in plasma TFPI expression at 10 mg/kg,ip pre-administrated 5 hrs before bacterial infection measured after 24 hrs by ELISA; type: functional, organism-based; details: time 29.0 hrs
[8] = test system: Staphylococcus aureus; assay: Antibacterial activity against Methicillin-resistant Staphylococcus aureus infected in C57BL/6 mouse assessed as reduction in IL-1beta level in serum at 10 mg/kg,ip pre-administrated 5 hrs before bacterial infection measured after 24 hrs by ELISA; type: functional, organism-based; details: time 29.0 hrs
[9] = test system: Neutrophil; assay: Induction of degranulation in mouse bone marrow derived neutrophil assessed as increase in MMP-9 release at 25 to 100 ug/ml incubated for 6 hrs by ELISA; type: functional, cell-based; details: dose 25-100 µg/ml
[10] = test system: Staphylococcus aureus; assay: Antibacterial activity against Staphylococcus aureus ATCC 25923 infected in C57BL/6 mouse assessed as increase in survival rate at 10 mg/kg,ip pre-administrated 5 hrs before bacterial infection measured after 7 days; type: functional, organism-based; details: time 7.0 day
[11] = test system: Escherichia coli; assay: Antibacterial activity against Escherichia coli ATCC 25922 infected in C57BL/6 mouse assessed as reduction in bacterial load at 10 mg/kg,ip pre-administrated 5 hrs before bacterial infection; type: functional, organism-based
[12] = test system: Escherichia coli; assay: Antibacterial activity against Carbapenem-resistant Escherichia coli infected in C57BL/6 mouse assessed as reduction in TNF-alpha level in peritoneal fluid at 10 mg/kg,ip administrated 5 hrs after bacterial infection measured after 24 hrs by ELISA; type: functional, organism-based; details: time 19.0 hrs
[13] = test system: Neutrophil; assay: Induction of ROS production in mouse bone marrow derived neutrophil at 25 to 100 ug/ml incubated for 6 hrs by DCFA-DA staining based flow cytometry; type: functional, cell-based; details: dose 25-100 µg/ml
[14] = test system: Staphylococcus aureus; assay: Antibacterial activity against Staphylococcus aureus ATCC 25923 infected in C57BL/6 mouse assessed as reduction in IL-6 level in serum at 10 mg/kg,ip pre-administrated 5 hrs before bacterial infection measured after 24 hrs by ELISA; type: functional, organism-based; details: time 29.0 hrs
[15] = test system: Escherichia coli; assay: Antimicrobial activity against Carbapenem-resistant Escherichia coli assessed as reduction in microbial colony forming unit at 200 ug/ml incubated for 1 to 4 hrs by time-kill kinetics based analysis; type: functional, organism-based; details: dose 200.0 µg/ml, time 1-4 hrs
[16] = test system: Peritoneal macrophage cell; assay: Induction of chemotaxis in mouse Peritoneal macrophage assessed as upregulation of IL-1beta expression at 25 to 100 ug/ml incubated for 6 hrs by ELISA; type: functional, cell-based; details: dose 25-100 µg/ml
[17] = test system: Mus musculus; assay: Antithrombotic activity in C57BL/6 mouse tail transection model assessed as increase in tail bleeding time at 30 mg/kg,SC administration; type: functional, organism-based
[18] = test system: Peritoneal macrophage cell; assay: Induction of phagocytosis in mouse Peritoneal macrophage assessed as increase in neutral red dye uptake by measuring optical density absorbance at 50 ug/ml incubated for 24 hrs followed by dye addition measured after 4 hrs by absorbance based assay (reference value: 0.089); type: functional; details: dose 50 µg/ml; time 28 hrs
[19] = test system: Escherichia coli; assay: Antibacterial activity against Escherichia coli ATCC 25922 infected in C57BL/6 mouse assessed as reduction in TNF-alpha level in peritoneal fluid at 10 mg/kg,ip pre-administrated 5 hrs before bacterial infection measured after 24 hrs by ELISA; type: functional, organism-based; details: time 29.0 hrs
[20] = test system: Peritoneal macrophage; assay: Induction of nitric oxide production in mouse Peritoneal macrophage incubated for 6 hrs by Griess reagent based ELISA; type: functional, cell-based
[21] = test system: Peritoneal macrophage cell; assay: Induction of ROS production in mouse Peritoneal macrophage incubated for 6 hrs by DCFA-DA staining based flow cytometry; type: functional, cell-based
[22] = test system: Staphylococcus aureus; assay: Antibacterial activity against Methicillin-resistant Staphylococcus aureus infected in C57BL/6 mouse assessed as reduction in TNF-alpha level in peritoneal fluid at 10 mg/kg,ip pre-administrated 5 hrs before bacterial infection measured after 24 hrs by ELISA; type: functional, organism-based; details: time 29.0 hrs
[23] = test system: Staphylococcus aureus; assay: Antibacterial activity against Methicillin-resistant Staphylococcus aureus infected in C57BL/6 mouse assessed as reduction in IL-6 level in peritoneal fluid at 10 mg/kg,ip administrated 5 hrs after bacterial infection measured after 24 hrs by ELISA; type: functional, organism-based; details: time 19.0 hrs
[24] = test system: Peritoneal macrophage cell; assay: Induction of chemotaxis in mouse Peritoneal macrophage assessed as upregulation of CXCL2 production at 100 ug/ml preincubated with WRW4 followed by compound addition by ELISA; type: functional, cell-based; details: dose 100.0 µg/ml
[25] = test system: Staphylococcus aureus; assay: Antibacterial activity against Methicillin-resistant Staphylococcus aureus infected in C57BL/6 mouse assessed as reduction in IL-1beta level in peritoneal fluid at 10 mg/kg,ip administrated 5 hrs after bacterial infection measured after 24 hrs by ELISA; type: functional, organism-based; details: time 19.0 hrs
[26] = test system: Mus musculus; assay: Immunomodulatory activity in cyclophosphamide immunosuppressed C57BL/6 mouse with neutrophil depletion model assessed as increase in number of neutrophil in peritoneal lavage at 10 mg/kg,ip administration measured after 24 hrs by flow cytometry; type: functional, organism-based
[27] = test system: Mus musculus; assay: Immunomodulatory activity in clodronate liposome immunosuppressed C57BL/6 mouse with monocyte depletion model assessed as increase in number of monocyte in peritoneal lavage at 10 mg/kg,ip administration measured after 12 hrs by flow cytometry; type: functional, organism-based
[28] = test system: Mus musculus; assay: Immunomodulatory activity in clodronate liposome immunosuppressed C57BL/6 mouse with neutrophil depletion model assessed as change in T-lymphocytes in peritoneal lavage at 10 mg/kg,ip administration measured after 5 to 24 hrs by flow cytometry; type: functional, organism-based; details: time 5-24 hrs
[29] = test system: Plasma; assay: Anticoagulation activity in human platelet poor plasma assessed as elongation of prothrombin time at 100 ug/ml measured after 5 mins; type: functional, cell-free; details: dose 100.0 µg/ml
[30] = test system: Staphylococcus aureus; assay: Antibacterial activity against Methicillin-resistant Staphylococcus aureus infected in C57BL/6 mouse assessed as reduction in IL-6 level in peritoneal fluid at 10 mg/kg,ip pre-administrated 5 hrs before bacterial infection measured after 24 hrs by ELISA; type: functional, organism-based; details: time 29.0 hrs
[31] = test system: Staphylococcus aureus; assay: Antibacterial activity against Staphylococcus aureus ATCC 25923 infected in C57BL/6 mouse assessed as reduction in TNF-alpha level in peritoneal fluid at 10 mg/kg,ip administrated 5 hrs after bacterial infection measured after 24 hrs by ELISA; type: functional, organism-based; details: time 19.0 hrs

## CC[C@H](C)[C@H](NC(=O)[C@@H]1CSSC[C@H](NC(=O)[C@H](CCC(=O)O)NC(=O)[C@@H](NC(=O)[C@H](CCCCN)NC(=O)[C@H](Cc2c[nH]cn2)NC(=O)[C@@H](NC(=O)[C@H](CCCCN)NC(=O)[C@H](CCC(=O)O)NC(=O)[C@H](C)NC(=O)[C@H](CCC(=O)O)NC(=O)[C@H](CCC(=O)O)NC(=O)[C@H](CCC(=O)O)NC(=O)[C@H](C)N)[C@@H](C)O)[C@@H](C)O)C(=O)N[C@@H](CC(C)C)C(=O)N[C@@H](CCC(=O)O)C(=O)N1)C(=O)N[C@@H](Cc1ccccc1)C(=O)N[C@H](C(=O)N[C@@H](CC(C)C)C(=O)N[C@@H](CC(C)C)C(=O)N1CCC[C@H]1C(=O)N1CCC[C@@H]1C(=O)N[C@H](C)C(=O)O)[C@@H](C)O
[1]
  Activity: Active
[2]
  Activity: inactive
[3]
  Activity: inactive
[4]
  Activity: Active
[5]
  Activity: Active
[6]
  Activity: inactive
[7]
  Activity: Active
[8]
  Activity: Active
[9]
  Activity: inactive
[10]
  Activity: Active
[11]
  Activity: Active
[12]
  Activity: Active
[13]
  Activity: inactive
[14]
  Activity: Active
[15]
  Activity: inactive
[16]
  Activity: inactive
[17]
  Activity: inactive
[18]
  OD: 0.102
[19]
  Activity: Active
[20]
  Activity: Dose-Dependent Effect
[21]
  Activity: Dose-Dependent Effect
[22]
  Activity: Active
[23]
  Activity: Active
[24]
  Activity: Active
[25]
  Activity: Active
[26]
  Activity: inactive
[27]
  Activity: Active
[28]
  Activity: inactive
[29]
  Activity: inactive
[30]
  Activity: Active
[31]
  Activity: Active
